Laboratory results from the kinase profiling compilation of Christmann-Franck et al. (2016).

How the values were obtained:
HIPK1 (human) = HIPK1 (human) (UniProt Q86Z02)
DYRK3 (human) = DYRK3 (human) (UniProt O43781)
PKN2 (human) = PKN2 (human) (UniProt Q16513)
CDK2 CCNA2 (human) = CDK2 CCNA2 (human) (UniProt P20248+P24941)
[1] = system: AKT2 (human), P31751 [S474D]
MAP3K11 (human) = MAP3K11 (human) (UniProt Q16584)
LCK (mouse) = conditions: accession and sequence are those of the human protein
RIPK2 (human) = RIPK2 (human) (UniProt O43353); conditions: compound 10.0 µM
BRSK1 (human) = BRSK1 (human) (UniProt Q8TDC3)
MKNK2 (human) = MKNK2 (human) (UniProt Q9HBH9)
MST4 (human) = MST4 (human) (UniProt Q9P289)
MAPKAPK5 (human) = MAPKAPK5 (human) (UniProt Q8IW41)
FGFR1 (human) = FGFR1 (human) (UniProt P11362)
MAPK1 (human) = MAPK1 (human) (UniProt P28482)
SRC (human) = SRC (human) (UniProt P12931)
MAPK3 (human) = MAPK3 (human) (UniProt P27361)
RPS6KA3 KD1 KD2 (human) = RPS6KA3 KD1 KD2 (human) (UniProt P51812)
MINK1 (human) = MINK1 (human) (UniProt Q8N4C8)
HIPK3 (human) = HIPK3 (human) (UniProt Q9H422)
DYRK1A (human) = DYRK1A (human) (UniProt Q13627)
NUAK1 (human) = NUAK1 (human) (UniProt O60285)
NEK6 (human) = NEK6 (human) (UniProt Q9HC98)
TTK (human) = TTK (human) (UniProt P33981)

FGFR1 (human), sequence (P11362 whole entry, looked up): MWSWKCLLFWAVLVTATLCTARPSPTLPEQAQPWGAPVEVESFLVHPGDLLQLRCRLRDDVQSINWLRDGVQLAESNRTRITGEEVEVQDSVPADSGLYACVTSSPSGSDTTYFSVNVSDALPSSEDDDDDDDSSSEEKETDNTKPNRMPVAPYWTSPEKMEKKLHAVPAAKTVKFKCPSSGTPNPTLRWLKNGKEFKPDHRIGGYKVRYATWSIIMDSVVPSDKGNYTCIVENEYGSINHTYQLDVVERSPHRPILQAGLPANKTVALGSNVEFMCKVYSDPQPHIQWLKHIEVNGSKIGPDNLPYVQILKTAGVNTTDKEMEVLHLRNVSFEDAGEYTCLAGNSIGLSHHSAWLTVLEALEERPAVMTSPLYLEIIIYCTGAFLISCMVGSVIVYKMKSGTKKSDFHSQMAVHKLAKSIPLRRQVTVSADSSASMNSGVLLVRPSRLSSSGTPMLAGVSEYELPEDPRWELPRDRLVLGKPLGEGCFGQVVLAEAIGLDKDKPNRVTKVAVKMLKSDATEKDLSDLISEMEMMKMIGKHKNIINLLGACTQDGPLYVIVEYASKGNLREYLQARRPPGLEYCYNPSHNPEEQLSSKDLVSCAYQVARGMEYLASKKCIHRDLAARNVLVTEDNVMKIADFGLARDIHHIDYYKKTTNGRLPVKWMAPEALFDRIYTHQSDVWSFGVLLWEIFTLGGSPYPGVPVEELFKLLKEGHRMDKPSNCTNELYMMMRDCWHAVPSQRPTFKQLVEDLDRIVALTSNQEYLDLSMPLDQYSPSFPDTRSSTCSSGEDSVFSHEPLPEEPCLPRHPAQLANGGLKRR
MST4 (human), sequence (Q9P289 whole entry, looked up): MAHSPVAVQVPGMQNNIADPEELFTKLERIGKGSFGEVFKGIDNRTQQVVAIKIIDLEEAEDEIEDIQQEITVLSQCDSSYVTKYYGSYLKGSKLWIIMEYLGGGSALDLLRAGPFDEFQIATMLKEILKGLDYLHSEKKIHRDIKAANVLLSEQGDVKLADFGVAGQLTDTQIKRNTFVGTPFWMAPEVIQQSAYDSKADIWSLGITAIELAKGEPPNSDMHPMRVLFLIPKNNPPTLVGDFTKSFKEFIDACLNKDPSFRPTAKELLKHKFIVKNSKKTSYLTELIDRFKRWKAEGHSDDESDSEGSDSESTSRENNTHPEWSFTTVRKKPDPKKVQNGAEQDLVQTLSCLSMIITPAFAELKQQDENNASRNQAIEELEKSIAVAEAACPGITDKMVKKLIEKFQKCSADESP
MKNK2 (human), sequence (Q9HBH9 whole entry, looked up): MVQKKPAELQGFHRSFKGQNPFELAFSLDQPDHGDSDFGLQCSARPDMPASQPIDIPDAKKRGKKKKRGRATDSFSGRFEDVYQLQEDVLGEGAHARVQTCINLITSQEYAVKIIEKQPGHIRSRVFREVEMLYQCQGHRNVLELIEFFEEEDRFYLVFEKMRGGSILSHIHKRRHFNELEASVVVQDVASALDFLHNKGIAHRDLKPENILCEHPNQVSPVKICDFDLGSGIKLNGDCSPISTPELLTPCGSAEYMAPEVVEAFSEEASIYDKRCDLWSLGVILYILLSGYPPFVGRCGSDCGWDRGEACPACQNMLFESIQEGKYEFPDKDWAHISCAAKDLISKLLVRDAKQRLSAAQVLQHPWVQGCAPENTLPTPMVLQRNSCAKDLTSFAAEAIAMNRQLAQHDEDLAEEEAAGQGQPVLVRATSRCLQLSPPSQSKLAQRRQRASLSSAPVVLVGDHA
DYRK3 (human), sequence (O43781 whole entry, looked up): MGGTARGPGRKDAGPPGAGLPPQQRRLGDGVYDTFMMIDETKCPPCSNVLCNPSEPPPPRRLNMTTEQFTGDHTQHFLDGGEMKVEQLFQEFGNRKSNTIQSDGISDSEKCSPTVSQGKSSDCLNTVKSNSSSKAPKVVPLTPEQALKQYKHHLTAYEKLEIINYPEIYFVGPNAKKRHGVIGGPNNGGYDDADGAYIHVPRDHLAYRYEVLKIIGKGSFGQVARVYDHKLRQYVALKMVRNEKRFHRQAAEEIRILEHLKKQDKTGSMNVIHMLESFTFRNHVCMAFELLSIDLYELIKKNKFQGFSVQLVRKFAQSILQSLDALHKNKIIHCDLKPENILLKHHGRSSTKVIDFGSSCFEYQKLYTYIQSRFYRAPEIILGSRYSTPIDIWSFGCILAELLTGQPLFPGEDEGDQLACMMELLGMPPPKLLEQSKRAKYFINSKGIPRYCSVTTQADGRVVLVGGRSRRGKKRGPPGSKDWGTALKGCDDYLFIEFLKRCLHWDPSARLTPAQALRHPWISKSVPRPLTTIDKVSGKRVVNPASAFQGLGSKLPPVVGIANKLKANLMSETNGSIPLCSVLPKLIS
MAPK1 (human), sequence (P28482 whole entry, looked up): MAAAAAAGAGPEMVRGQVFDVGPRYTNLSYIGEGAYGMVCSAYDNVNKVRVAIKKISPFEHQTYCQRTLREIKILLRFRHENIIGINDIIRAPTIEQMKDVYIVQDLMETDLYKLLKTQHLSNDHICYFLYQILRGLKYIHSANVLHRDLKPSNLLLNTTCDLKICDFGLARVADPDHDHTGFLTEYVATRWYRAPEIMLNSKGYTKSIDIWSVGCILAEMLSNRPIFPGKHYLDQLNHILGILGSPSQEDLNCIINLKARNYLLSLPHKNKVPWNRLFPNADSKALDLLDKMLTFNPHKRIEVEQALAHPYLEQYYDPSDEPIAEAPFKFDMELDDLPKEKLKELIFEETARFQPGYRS
RPS6KA3 KD1 KD2 (human), sequence (P51812 whole entry, looked up): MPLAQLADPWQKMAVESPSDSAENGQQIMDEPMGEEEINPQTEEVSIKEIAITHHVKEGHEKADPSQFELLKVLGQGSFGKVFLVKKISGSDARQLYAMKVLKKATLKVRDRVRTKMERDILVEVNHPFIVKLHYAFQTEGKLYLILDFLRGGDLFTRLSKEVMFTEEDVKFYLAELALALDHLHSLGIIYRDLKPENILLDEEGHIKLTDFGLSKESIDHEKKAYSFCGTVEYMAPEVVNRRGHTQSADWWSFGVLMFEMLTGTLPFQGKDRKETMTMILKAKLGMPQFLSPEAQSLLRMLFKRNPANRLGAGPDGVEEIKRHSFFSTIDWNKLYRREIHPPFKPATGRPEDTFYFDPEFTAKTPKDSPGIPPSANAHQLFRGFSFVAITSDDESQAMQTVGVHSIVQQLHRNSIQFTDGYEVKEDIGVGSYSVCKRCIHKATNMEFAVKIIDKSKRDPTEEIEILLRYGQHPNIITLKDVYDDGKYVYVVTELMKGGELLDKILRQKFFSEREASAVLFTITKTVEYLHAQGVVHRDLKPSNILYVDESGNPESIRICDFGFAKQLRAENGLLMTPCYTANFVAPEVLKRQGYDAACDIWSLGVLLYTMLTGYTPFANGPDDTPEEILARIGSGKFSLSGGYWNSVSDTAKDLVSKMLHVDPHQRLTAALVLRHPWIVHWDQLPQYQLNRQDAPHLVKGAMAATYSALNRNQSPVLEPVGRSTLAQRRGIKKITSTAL
MAPKAPK5 (human), sequence (Q8IW41 whole entry, looked up): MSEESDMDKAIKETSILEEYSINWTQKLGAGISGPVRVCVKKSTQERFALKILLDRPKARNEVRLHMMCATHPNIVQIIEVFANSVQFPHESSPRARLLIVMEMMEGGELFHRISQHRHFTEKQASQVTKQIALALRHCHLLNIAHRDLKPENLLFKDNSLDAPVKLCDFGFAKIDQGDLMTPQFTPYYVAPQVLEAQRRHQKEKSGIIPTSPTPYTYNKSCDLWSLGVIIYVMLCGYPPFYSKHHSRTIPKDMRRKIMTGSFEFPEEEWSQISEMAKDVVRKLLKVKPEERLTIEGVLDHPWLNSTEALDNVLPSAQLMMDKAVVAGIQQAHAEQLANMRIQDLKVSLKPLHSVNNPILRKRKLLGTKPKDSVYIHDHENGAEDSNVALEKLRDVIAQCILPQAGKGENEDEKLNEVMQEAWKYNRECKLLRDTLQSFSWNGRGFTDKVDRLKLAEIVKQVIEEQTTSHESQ
NEK6 (human), sequence (Q9HC98 whole entry, looked up): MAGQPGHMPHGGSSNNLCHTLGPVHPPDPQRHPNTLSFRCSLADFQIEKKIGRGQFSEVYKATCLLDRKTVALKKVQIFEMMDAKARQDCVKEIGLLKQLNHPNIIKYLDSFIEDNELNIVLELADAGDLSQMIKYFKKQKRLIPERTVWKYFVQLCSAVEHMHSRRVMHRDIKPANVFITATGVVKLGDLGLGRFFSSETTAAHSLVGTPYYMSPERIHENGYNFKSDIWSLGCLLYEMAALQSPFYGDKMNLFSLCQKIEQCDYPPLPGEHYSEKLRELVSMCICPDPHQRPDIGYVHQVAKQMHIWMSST
MAPK3 (human), sequence (P27361 whole entry, looked up): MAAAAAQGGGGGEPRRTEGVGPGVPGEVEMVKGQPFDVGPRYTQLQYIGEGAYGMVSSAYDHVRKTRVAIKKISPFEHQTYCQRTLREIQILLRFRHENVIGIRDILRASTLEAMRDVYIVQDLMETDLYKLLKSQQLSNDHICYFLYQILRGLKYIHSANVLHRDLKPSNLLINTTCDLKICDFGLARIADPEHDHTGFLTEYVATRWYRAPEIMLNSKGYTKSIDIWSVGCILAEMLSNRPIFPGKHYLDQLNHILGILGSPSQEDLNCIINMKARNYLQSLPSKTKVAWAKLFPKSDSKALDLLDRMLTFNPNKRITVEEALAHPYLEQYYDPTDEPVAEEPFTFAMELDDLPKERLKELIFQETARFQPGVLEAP

For CCC(=O)N1CCN(c2ccc(-n3c(=O)ccc4cnc5ccc(-c6cnc7ccccc7c6)cc5c43)cc2C(F)(F)F)CC1, the per cent of control (HIPK1 (human); compound 1.0 µM) was 76%, the per cent of control (HIPK1 (human); compound 10.0 µM) was 85% and the per cent of control (DYRK3 (human); compound 1.0 µM) was 88%. The per cent of control (DYRK3 (human); compound 10.0 µM) was 52%, the per cent of control (PKN2 (human); compound 1.0 µM) was 97% and the per cent of control (PKN2 (human); compound 10.0 µM) was 114%. It also gave a per cent of control (CDK2 CCNA2 (human); compound 1.0 µM) of 108%, a per cent of control (CDK2 CCNA2 (human); compound 10.0 µM) of 77% and a per cent of control ([1]; compound 1.0 µM) of 95%. For the same molecule, the per cent of control ([1]; compound 10.0 µM) was 84%, the per cent of control (MAP3K11 (human); compound 1.0 µM) was 99% and the per cent of control (MAP3K11 (human); compound 10.0 µM) was 86%. It also gave a per cent of control (LCK (mouse); compound 1.0 µM) of 93%, a per cent of control (LCK (mouse); compound 10.0 µM) of 78% and a per cent of control (RIPK2 (human)) of 64%. The per cent of control (BRSK1 (human); compound 1.0 µM) was 99%, the per cent of control (BRSK1 (human); compound 10.0 µM) was 94% and the per cent of control (MKNK2 (human); compound 1.0 µM) was 112%. For the same molecule, the per cent of control (MKNK2 (human); compound 10.0 µM) was 96%, the per cent of control (MST4 (human); compound 1.0 µM) was 96% and the per cent of control (MST4 (human); compound 10.0 µM) was 89%. For the same molecule, the per cent of control (MAPKAPK5 (human); compound 1.0 µM) was 118%, the per cent of control (MAPKAPK5 (human); compound 10.0 µM) was 49% and the per cent of control (FGFR1 (human); compound 1.0 µM) was 110%. For the same molecule, the per cent of control (FGFR1 (human); compound 10.0 µM) was 79%, the per cent of control (MAPK1 (human); compound 1.0 µM) was 102% and the per cent of control (MAPK1 (human); compound 10.0 µM) was 90%. For the same molecule, the per cent of control (SRC (human); compound 1.0 µM) was 60%, the per cent of control (SRC (human); compound 10.0 µM) was 52% and the per cent of control (MAPK3 (human); compound 1.0 µM) was 99%. For the same molecule, the per cent of control (MAPK3 (human); compound 10.0 µM) was 96%, the per cent of control (RPS6KA3 KD1 KD2 (human); compound 1.0 µM) was 96% and the per cent of control (RPS6KA3 KD1 KD2 (human); compound 10.0 µM) was 81%. For the same molecule, the per cent of control (MINK1 (human); compound 1.0 µM) was 69%, the per cent of control (MINK1 (human); compound 10.0 µM) was 14% and the per cent of control (HIPK3 (human); compound 1.0 µM) was 107%. For the same molecule, the per cent of control (HIPK3 (human); compound 10.0 µM) was 91%, the per cent of control (DYRK1A (human); compound 1.0 µM) was 92% and the per cent of control (DYRK1A (human); compound 10.0 µM) was 75%. It also gave a per cent of control (NUAK1 (human); compound 1.0 µM) of 101%, a per cent of control (NUAK1 (human); compound 10.0 µM) of 79% and a per cent of control (NEK6 (human); compound 1.0 µM) of 100%. The per cent of control (TTK (human); compound 1.0 µM) was 79% and the per cent of control (TTK (human); compound 10.0 µM) was 71%.
CC(C)n1nc(-c2cc3cc(O)ccc3[nH]2)c2c(N)ncnc21 was tested, and the per cent of control (DYRK3 (human); compound 1.0 µM) was 10%, the per cent of control (DYRK3 (human); compound 10.0 µM) was 2% and the per cent of control (PKN2 (human); compound 1.0 µM) was 68%. For the same molecule, the per cent of control (PKN2 (human); compound 10.0 µM) was 22%, the per cent of control (CDK2 CCNA2 (human); compound 1.0 µM) was 78% and the per cent of control (CDK2 CCNA2 (human); compound 10.0 µM) was 40%. The per cent of control (LCK (mouse); compound 1.0 µM) was 13%, the per cent of control (LCK (mouse); compound 10.0 µM) was 4% and the per cent of control (MKNK2 (human); compound 1.0 µM) was 86%. It also gave a per cent of control (MKNK2 (human); compound 10.0 µM) of 42%, a per cent of control (MST4 (human); compound 1.0 µM) of 42% and a per cent of control (MST4 (human); compound 10.0 µM) of 13%. For the same molecule, the per cent of control (MAPKAPK5 (human); compound 1.0 µM) was 97%, the per cent of control (MAPKAPK5 (human); compound 10.0 µM) was 92% and the per cent of control (FGFR1 (human); compound 1.0 µM) was 14%. The per cent of control (FGFR1 (human); compound 10.0 µM) was 2%, the per cent of control (MAPK1 (human); compound 1.0 µM) was 106% and the per cent of control (MAPK1 (human); compound 10.0 µM) was 88%. The per cent of control (MAPK3 (human); compound 1.0 µM) was 88%, the per cent of control (MAPK3 (human); compound 10.0 µM) was 81% and the per cent of control (RPS6KA3 KD1 KD2 (human); compound 1.0 µM) was 63%. The per cent of control (RPS6KA3 KD1 KD2 (human); compound 10.0 µM) was 16%, the per cent of control (DYRK1A (human); compound 1.0 µM) was 84% and the per cent of control (DYRK1A (human); compound 10.0 µM) was 55%. It also gave a per cent of control (NEK6 (human); compound 1.0 µM) of 99% and a per cent of control (NEK6 (human); compound 10.0 µM) of 96%.
